Test results: article PMC12040169 (PLOS Biology, 2025)
Values joined by “and” are separate entries in the source; they are usually repeats but may differ in a detail not shown here. Equal values may be shown once.

Tests used:
HeLa = details: bulk resorufin, single well, 28.5 h, 10 µM, Bulk resorufin fluorescence
in vitro [1] = details: human, hela cells, % viability
[2] = test system: T1, CTL2-GFP (C. trachomatis L2/434/Bu, GFP-expressing); test: microbe, parasite or virus in culture; parameters: Intracellular C. trachomatis growth in HeLa cells, bulk GFP fluorescence relative to DMSO; details: Chlamydia trachomatis, HeLa, 28.5 h; bulk GFP, mean of 2; read-out: % of control remaining
T1 construct: L2/434/Bu, GFP-expressing
Method: MICs were calculated as described above.

[3] = test system: T2, C. trachomatis L2/434/Bu expressing GFP (CTL2-GFP); test: microbe, parasite or virus in culture; parameters: C. trachomatis total inclusion area by high-content imaging, normalised to DMSO; details: Chlamydia trachomatis, HeLa, 28.5 h; total inclusion area; read-out: % of control remaining
T2 construct: L2/434/Bu GFP intracellular growth in HeLa cells
Summary of the method: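 After bulk GFP and resorufin reads, fixed cells were Hoechst-stained and imaged to count chlamydial inclusions and host nuclei. Total inclusion area and number tracked bacterial growth, and nuclei number tracked host viability. MICs were derived, and 36,785 drug-like molecules were screened this way.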

in vitro [4] = test: in vitro; parameters: Viability of infected HeLa host cells, resazurin conversion, bulk resorufin fluorescence relative to DMSO; details: human, hela cells; bulk resorufin, mean of 2

SMILES	% viability (HeLa)	viability at 28.5 h, 10 µM (in vitro [1]) [%]	further results
CCOC(=O)c1c(NS(=O)(=O)c2ccc(NC(C)=O)cc2)sc2c1CCCC2 [CBK004658]	99.8%	90.3	
Nc1nc(Nc2ccccc2)nc(C(F)(F)F)n1 [CBK004712]	72%	89.8	
O=[N+]([O-])c1c(-c2cn[nH]c2)n[nH]c1-c1cn[nH]c1 [CBK008388]	93.4%	86.2	
CCN(CC)c1ccc2cc(/C(C)=N/O)c(=O)oc2c1 [CBK009063]	108% and 84.7%		
CC(=O)NC[C@H]1CN(c2ccc(-c3cc4ccccc4n3C(=O)OC(C)(C)C)c(F)c2)C(=O)O1 [CBK011849]	82.6%	98.1	
Cc1cn(C2CC(O)C(CO)O2)c(=S)[nH]c1=O (centres unmarked) [CBK012339]	112% and 90.8%		
O=C(O)Cc1cc(C(=O)/C=C/c2c(Cl)cccc2Cl)ccc1O [CBK013106]	100%	99	
S=c1[nH]nc(-c2sc3ccccc3c2Cl)[nH]1 [CBK013698]	90.2%	96.3	
O=C(Nc1nc[nH]n1)NC1CCCCC1 [CBK017342]	119% and 94.5%		
CC(C)c1n[nH]c2c1/C(=N\N)c1ccccc1-2 [CBK017384]	73.8%	85.4	
CS(=O)(=O)Nc1ccc2[nH]c(=O)c(C(=O)NCc3ccc(Cl)cc3)cc2c1 [CBK017560]	102%	97.9	
CCCO/N=C\c1ccc(-n2cnnc2)cc1 [CBK018921]	77.5% and 99.8%		
COc1ccc(-n2ccc(=O)c(Cc3c(Cl)cccc3Cl)c2C)cc1 [CBK019186]	106%	89.2	
CC1=C/C(=C(\C#N)C(N)=O)NC(c2ccccc2O)=N1 [CBK019764]	95.3%	111	
Cc1nc2ccccc2n1C(=O)c1sc2ccccc2c1Cl [CBK020557]	115%	106	
O=C(O)/C(SC1=NC2=Nc3ccccc3C2N=N1)=C1/C(=O)Nc2ccccc21 (centres unmarked) [CBK021943]	96%	100	
S=C(Nc1ccc(C2=NCCO2)cc1)Nc1ccc(Cl)c(Cl)c1 [CBK022344]	106%	90.6	
CNC1=NC2CCCCC2O1 (centres unmarked) [CBK023075F]	111%	117	
O=C(O)c1c(NS(=O)(=O)c2ccc(Oc3ccccc3)cc2)sc2c1CCCC2 [CBK024820]	106%	101	
CC(=O)NC(NS(=O)(=O)c1ccccc1)(C(F)(F)F)C(F)(F)F [CBK025820]	92.5%	98.4	
O=C1CSC(Nc2ccc(Br)cc2)=N1 [CBK026413]	88.5%	79.9	

SMILES	% viability (HeLa)	viability at 28.5 h, 10 µM (in vitro [1]) [%]	further results
O=C(Nc1cncc(OC2CCNCC2)n1)C1CCC1 [CBK026728T]	94%	81.9	
CC1=CC(C)C(C(=O)O)C(C(=O)N2CCN(C)CC2)C1 (centres unmarked) [CBK027311]	102%		
Cc1sc(NC(=O)C(F)(F)F)c(C(N)=O)c1C [CBK027775]	94.1%	99.4	
Brc1ccc(CSc2nc[nH]n2)cc1 [CBK027819]	98.5%		
Cc1c(NC(=O)OC(C)C)sc(=S)n1C [CBK028089]	83.7%	88.9	
O=C(CNS(=O)(=O)c1ccc(Br)cc1)N1CCOCC1 [CBK034469]	87%	96	
CCOc1ccsc1C(=O)NCc1ccc(OC2CCNCC2)cc1 [CBK036355T]	114%	106	
COc1ccc([C@@]23CC[C@@H](CNS(=O)(=O)c4cccc(Cl)c4)C[C@@H]2N(C)CC3)cc1OC [CBK042202T]	91.5%	99.8	
CCOC(=O)N1CCC(NS(=O)(=O)c2ccc3ccccc3c2)CC1 [CBK045452]	93.1% and 96.6%	92	
CCOC(=O)N1CCC(NS(=O)(=O)c2ccc(Oc3ccccc3)cc2)CC1 [CBK045469]	97.7%	98.4	
O=C(Nc1ccccc1OC1CCNCC1)C1CCC1 [CBK045901T]	97.8%	109	
O=C(Nc1ccccc1OC1CCNCC1)C1CCCO1 (centres unmarked) [CBK045905T]	110%	91.1	
CC(=O)Nc1ccc(S(=O)(=O)Nc2c(C(=O)N3CCN(C)CC3)[nH]c3ccccc23)cc1 [CBK050044]	93.9%	94.9	
Cc1nn(C)c(N2CCNCC2)c1NC(=O)c1ccoc1 [CBK050302T]	108%	99.7	
CN1CCN(S(=O)(=O)c2ccc(C(=O)O)cc2)CC1 [CBK062446]	109% and 101%	90.4	
COCCn1cnc2sc(C(=O)NCc3ccccc3OC)c(C)c2c1=O [CBK071862]	95.1% and 64.7%		
Clc1ccc(COc2nccnc2OC2CCN(CC3CC3)CC2)cc1Cl [CBK083123]	104%		
O=C(O)c1cc(S(=O)(=O)NCc2ccco2)c(Cl)cc1Cl [CBK113171]	107% and 83.2%		
Cc1cc(CC(=O)N2CCCC3(CCN(C(=O)c4ccoc4)C3)C2)on1 (centres unmarked) [CBK131628]	106% and 82.1%		
COC(=O)c1ccc(-c2cc3ccccc3o2)nc1 [CBK149228]	96.5%		
COc1ccc(CCNC(=O)C2CCCCC2C(=O)O)cc1 (centres unmarked) [CBK262636]	86.3% and 110%		

SMILES	% viability (HeLa)	viability at 28.5 h, 10 µM (in vitro [1]) [%]	further results
O=C(O)c1ccc(CNCc2c(F)cccc2Cl)cc1 [CBK269496C]	111%		
O=C(O)c1ccc(CNCc2c(F)cccc2Cl)cc1 [CBK269496]	82.3%		
O=C(O)c1cccc(S(=O)(=O)N2CCN(C(=O)c3ccccc3)CC2)c1 [CBK275920]	113% and 91.5% and 99.3%		
O=C(CN1C(=O)[C@H]2CCCN2C(=O)c2ccccc21)NC1CC1 [CBK282436]	122% and 91.3%		
CC(C)NC(=O)CN1C(=O)[C@H]2CCCN2C(=O)c2ccccc21 [CBK282437]	112% and 88.6%		
C[C@@H]1CN(Cc2ccco2)CCN1C(=O)Cc1ccccc1F [CBK284257]	83.4% and 106%		
O=C(NC[C@H]1CCCN(C(=O)c2ccccn2)C1)c1cccs1 [CBK284262]	105% and 83.9%		
O=C(NC1CC1)[C@@H]1C=CCN1C(=O)c1ccc(F)cc1F [CBK284279]	80.5% and 104%		
Cc1cc(NC(=O)c2ccc(Br)o2)nc2c1c(=O)oc1ccccc12 [CBK287440]	85.8% and 119%		
COc1ccc(C(=O)Nc2nc3nc(C)cc(C)c3s2)cc1 [CBK287755]	105% and 83%		
Oc1ccc(Nc2ncnc3c2oc2ccccc23)cc1 [CBK287967]	92.3% and 113%		
O=c1[nH][nH]c2c1cnc1c(C(F)(F)F)cccc12 [CBK287996]	113% and 84.4%		
O=c1[nH]nc(COc2ccc(Br)cc2)o1 [CBK288526]	110% and 86.7%		
Cc1c(C(=O)O)sc2nc(SCC(=O)NCc3ccccc3)[nH]c(=O)c12 [CBK301214K]	107%		
Fc1cc(Br)c(CNCc2ncc[nH]2)c(N2CCCCC2)c1F [CBK304243]		99.2	activity at 1 µM [2]: 128%; activity at 5 µM [2]: 39.3%; activity at 10 µM [2]: 16.8%; activity at 1 µM [3]: 105%; activity at 5 µM [3]: 30.4%; activity at 10 µM [3]: 7.47%; viability at 28.5 h, 1 µM (in vitro [4]): 96.3%; viability at 28.5 h, 5 µM (in vitro [4]): 88.7%; viability at 28.5 h, 10 µM (in vitro [4]): 89.7%
COc1cc(OC)c(CCNC2CCCc3c2cnn3C)c(OC)c1 (centres unmarked) [CBK304482]		111	activity at 1 µM [2]: 147%; activity at 5 µM [2]: 156%; activity at 10 µM [2]: 135%; activity at 1 µM [3]: 102%; activity at 5 µM [3]: 131%; activity at 10 µM [3]: 56.7%; viability at 28.5 h, 1 µM (in vitro [4]): 97.4%; viability at 28.5 h, 5 µM (in vitro [4]): 91.3%; viability at 28.5 h, 10 µM (in vitro [4]): 93.8%
CN1CCOC(CNc2nc(-c3ccncc3)nc3c2CCC3)C1 (centres unmarked) [CBK304890]		87	activity at 1 µM [2]: 141%; activity at 5 µM [2]: 112%; activity at 10 µM [2]: 126%; activity at 1 µM [3]: 46.1%; activity at 5 µM [3]: 45.8%; activity at 10 µM [3]: 25.1%; viability at 28.5 h, 1 µM (in vitro [4]): 90.5%; viability at 28.5 h, 5 µM (in vitro [4]): 92.8%; viability at 28.5 h, 10 µM (in vitro [4]): 99.5%
CCCc1cc(C(=O)N2CCN(c3nccc(OC)n3)CC2)[nH]n1 [CBK304898]		87	activity at 1 µM [2]: 148%; activity at 5 µM [2]: 151%; activity at 10 µM [2]: 156%; activity at 1 µM [3]: 127%; activity at 5 µM [3]: 120%; activity at 10 µM [3]: 43.6%; viability at 28.5 h, 1 µM (in vitro [4]): 89.4%; viability at 28.5 h, 5 µM (in vitro [4]): 93.7%; viability at 28.5 h, 10 µM (in vitro [4]): 89.2%
CC1CC(C)CN(Cc2csc(NC(=O)Cc3ccc(Cl)cc3)n2)C1 (centres unmarked) [CBK306142]		81.1	activity at 1 µM [2]: 150%; activity at 5 µM [2]: 112%; activity at 10 µM [2]: 75.2%; activity at 1 µM [3]: 140%; activity at 5 µM [3]: 48.4%; activity at 10 µM [3]: 46.1%; viability at 28.5 h, 1 µM (in vitro [4]): 87.7%; viability at 28.5 h, 5 µM (in vitro [4]): 91.3%; viability at 28.5 h, 10 µM (in vitro [4]): 86%
OCC1(CNc2ncc(F)c(N3CCCC3)n2)CCOCC1 [CBK306647]		87.3	activity at 1 µM [2]: 108%; activity at 5 µM [2]: 64.2%; activity at 10 µM [2]: 59%; activity at 1 µM [3]: 130%; activity at 5 µM [3]: 60.9%; activity at 10 µM [3]: 47.1%; viability at 28.5 h, 1 µM (in vitro [4]): 100%; viability at 28.5 h, 5 µM (in vitro [4]): 93.8%; viability at 28.5 h, 10 µM (in vitro [4]): 95.5%
